{
  "source": "patent US20220133738A1",
  "about": "“GENOTYPE AND DOSE-DEPENDENT RESPONSE TO AN ASBTI IN PATIENTS WITH BILE SALT EXPORT PUMP DEFICIENCY” (MIRUM PHARMACEUTICALS, INC., priority 2019, published 2022)",
  "tested_on": "overweight and obese adults",
  "assay": "Dose-ranging phase 1 clinical study (NCT02475317): fecal bile acid excretion with maralixibat and volixibat",
  "assay_type": "in vivo, human",
  "conditions": "for fBA excretion, mean change from baseline: baseline to day 6 and 7",
  "data": [
    {"smiles": "CCCC[C@]1(CC)CS(=O)(=O)c2ccc(N(C)C)cc2[C@@H](c2cccc(NC(=O)N[C@@H]3O[C@H](COS(=O)(=O)O)[C@@H](O)[C@H](OCc4ccccc4)[C@H]3O)c2)[C@H]1O", "note": "[volixibat]", "values": [
      {"measurement": "fBA excretion, mean change from baseline", "setting": "10 mg dose (QD), 7 days", "result": 744, "unit": "µmol"},
      {"measurement": "fBA excretion, mean change from baseline", "setting": "20 mg dose (QD), 7 days", "result": 874, "unit": "µmol"},
      {"measurement": "fBA excretion, dose dependence", "setting": "across tested doses, 7 days", "result": "increased in a dose-dependent manner"},
      {"measurement": "treatment-emergent adverse events", "setting": "all doses, 7 days", "result": "mild, and none were serious"},
      {"measurement": "Mean serum 7αC4", "setting": "baseline to day 7, greatest change at maralixibat 50 mg BID", "result": "increased"},
      {"measurement": "Mean sBA levels", "setting": "day 7 versus baseline", "result": "not elevated"}
    ]}
  ]
}
